Conditions: pH 7.4
Procedure: As a bioactive substance, flavone (manufactured by Tokyo Chemical Industry Co., Ltd., NO. H0721) was used.
Any substance in the substance group A and a bioactive substance were added to 10 mL of distilled water and mixed to prepare a solution (or suspension), which was used as a test liquid. The substance in the substance group A was added in an amount such that the concentration in the test liquid was 10 mg/mL. The bioactive substance was added in an amount such that the concentration in the test liquid was 250 µg/mL. As a control, a test liquid (flavone only) to which a substance in the substance group A was not added was also prepared.
A receptor part of a Franz-type vertical diffusion cell was filled with a phosphate buffer (pH 7.4) containing 0.5% sodium taurocholate, and a Strat-M membrane for a transdermal diffusion test (manufactured by Merck) was attached as a permeable membrane. After 400 µL of the test liquid was dropped on the donor side, a receptor liquid was sampled over time. The amount of the bioactive substance in the sampled receptor liquid was quantified by high performance liquid chromatography. The experiment was performed with N = 1.

## C[C@@H]1O[C@@H](O[C@H]2[C@H](Oc3cc(O)c4c(c3)O[C@H](c3ccc(O)cc3)CC4=O)O[C@H](CO)[C@@H](O)[C@@H]2O)[C@H](O)[C@H](O)[C@H]1O [naringin, Naringin]
  skin permeation amount of flavone: hardly changed

Source: EP4755386A1, “SKIN PERMEATION PROMOTER AND SKIN PERMEATION PROMOTION METHOD” (Toyo Sugar Refining Co., Ltd., priority 2023, dated 2025)
